# Patent US10175256B2, “Compositions and methods utilizing lysophosphatidylcholine scaffolds” (National University Of Singapore, priority 2013, dated 2019)
# “Also recorded” adds a separate entry of the source.
# Legend:
# [1] = target: T1, mouse Mfsd2a (Mus musculus, UniProt Q9DA75); assay: In vitro transport (uptake) of radiolabeled and fluorescent LPCs in HEK293 cells overexpressing Mfsd2a; type: cell-based; settings: for comparison of Mfsd2a-mediated uptake (capacity to transport): HEK293 cells expressing Mfsd2a
# T1 construct: expressed in transfected cells; host or cells: HEK293
# T1 sequence (Q9DA75 1-534): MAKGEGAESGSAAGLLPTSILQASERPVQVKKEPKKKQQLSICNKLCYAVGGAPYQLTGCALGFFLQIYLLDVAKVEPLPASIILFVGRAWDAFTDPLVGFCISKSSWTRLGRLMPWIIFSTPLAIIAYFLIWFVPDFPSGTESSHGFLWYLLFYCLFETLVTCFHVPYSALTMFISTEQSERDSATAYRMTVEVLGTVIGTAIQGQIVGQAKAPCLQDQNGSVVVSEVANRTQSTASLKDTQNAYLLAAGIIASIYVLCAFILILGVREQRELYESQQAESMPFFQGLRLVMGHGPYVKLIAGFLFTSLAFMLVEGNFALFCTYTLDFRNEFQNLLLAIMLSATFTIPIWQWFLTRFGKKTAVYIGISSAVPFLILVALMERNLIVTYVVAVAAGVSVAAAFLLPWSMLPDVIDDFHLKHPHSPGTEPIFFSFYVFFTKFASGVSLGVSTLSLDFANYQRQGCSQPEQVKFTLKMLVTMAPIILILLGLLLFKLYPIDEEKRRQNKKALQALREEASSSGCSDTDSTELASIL
# Procedure: Uptake assays of radiolabeled LPCs or fluorescent LPCs were tested using HEK293 cells overexpressing Mfsd2a and mutants constructs. Briefly, HEK293 cells at 90-95% confluency were transfected using LIPOFECTAMINE 2000 (Invitrogen) with pcDNA3.1Mfsd2a (WT), pcDNA3.1Mfsd2aD92A (D92A), pcDNA3.1Mfsd2aD96A (D96A), or pcDNA3.1 (mock) plasmids. Uptake assays were performed after 24 hours of transfections. Prior to ligand incubation, HEK293 transfected cells were washed with serum-free DMEM before assays. For concentration and time dependent assays, radiolabeled LPCs were diluted in pre-warmed DMEM media. For sodium dependent assay, radiolabeled LPCs were diluted in transport buffer (5 mM KCl, 10 mM Hepes, pH 7.4) with 150 mM NaCl or 150 mM choline chloride. For sodium concentration dependent assays, any reductions in the concentration of NaCl were replaced by choline chloride in order to maintain a constant cation molarity of 150 mM. All assays were performed in 12 well-plates with triplicates and at 37° C.
# [2] = target: T1, mouse Mfsd2a; assay: TLC analysis of phospholipids (bio-incorporation of LPC into PC); type: cell-based
# Procedure: HEK293 cells overexpressing with pcDNA3.1Mfsd2a (WT), pcDNA3.1Mfsd2aD92A (D92A), pcDNA3.1Mfsd2aD96A, or pcDNA3.1 (mock) plasmids or human Mfsd2a (in Sport6 plasmid) were washed once with serum-free DMEM medium before incubation with 50 μM radiolabeled LPC [^14C]oleate, LPC [^14C]DHA or with 50 μM TopFluor-LPC and NBD-LPC. Lipids were extracted twice with HIP buffer for 30 mins. Lipids were dried with nitrogen stream and reconstituted in chloroform and spotted on TLC plates (Milipore). Solvent for phospholipid separation was chloroform/methanol/ammonia solution (25%) (50:25:6, per volume). TLC plates of radiolabeled phospholipids were dried for 30 mins and exposed overnight to Phosphorscreens and scanned with Typhoon FLA 9000 scanner (Agilent). TLC plates of fluorescent phospholipids were scanned with Typhoon FLA 9000 scanner and quantified using Imagequant software.
# [3] = target: T2, Mfsd2a (Mus musculus, UniProt Q9DA75); assay: Competition transport assay with LPC-[3H]palmitate as ligand; type: cell-based; set-up: expressed in transfected cells; host or cells: HEK293; settings: 25 μM LPC-[3H]palmitate; for competition for transport/uptake of LPC-[3H]palmitate: 10-fold molar excess (250 μM) competitor, 30 mins (PAF 15 mins)
# T2 sequence (Q9DA75 1-534): T1 sequence (Q9DA75 1-534)
# Procedure: Briefly, 24 h post transfection of HEK293 cells with pcDNA3.1Mfsd2a (WT), pcDNA3.1Mfsd2aD92A (D92A), pcDNA3.1Mfsd2aD96A, or pcDNA3.1 (mock) plasmids were washed once with serum-free DMEM medium before addition of a mixture of 25 μM radiolabeled LPC-palmitate and 250 μM cold competitors, which were dissolved in 12% BSA. Total BSA concentration was kept constant in samples with or without cold competitors. Assays were performed at 37° C. for 30 mins. Competition assays with other LPC analogs such as foscholine detergents, and PAF were performed under the same conditions except for 15 mins. The reduced reaction time was necessary in order to limit potential negative effects of detergents and bioactive lipids on cell survival. All assays were performed in 12 well-plates with triplicates and at 37° C.
# We next sought to determine ligand specificity and the chemical features of the LPC ligands that are required for transport by Mfsd2a.
# [4] = target: T2, Mfsd2a; assay: In vivo transport of radiolabeled, fluorescent LPCs and unesterified DHA in Mfsd2a KO and wild-type mice; set-up: from tissue; host or cells: living mice; brain (blood-brain barrier endothelium), liver, heart; fetal brain
# Procedure: Male and female mice of age of 6-8 weeks were IV injected with 75 μl of 20 mM radiolabeled LPC-[…], 100 μl of 10 mM LPC-[^14C]DHA/BSA complex or 82 μl of 12.2 mM [^14C]DHA/BSA complex in a total volume of 150 μl of phosphate-buffered saline. At 2 hours post injection, mice were anesthetized and perfused for 5 mins with PBS containing 0.5% BSA in order to remove blood and lipid tracer bound to the brain vasculature. Tissues were harvested for lipid extraction. For lipid extraction, tissues were weighed and similar amounts of tissues were homogenized in chloroform/methanol. Lipids from the organic phase were mixed with scintillant and scintillation counted. Similar experiments were also performed with an injection of 300 μg NBD-LPC/BSA or 300 μg TopFluor-LPC/BSA complex per mouse. In this experiment, mice were perfused for 5 mins with PBS followed 15 mins perfusion with 4% paraformaldehyde (PFA) for tissue fixation. Brain sections of WT and KO with a thickness of 40 μm were prepared and scanned using green fluorescence mode in Typhoon FLA 9000 scanner (Agilent). NBD-LPC accumulation was expressed as fluorescence of each section per its area. Dietary DHA transport from mother to fetus was also measured using [^14C]DHA/BSA complex. Pregnant females at e18.5 was gavaged with bolus of [^14C]DHA/BSA complex (200 μl of 10 mM [^14C]DHA/BSA/mouse). Brain of fetuses were collected 20 hours post-gavage and weighed. Lipid extraction and radioactivity were performed as described above.
molecule,measurement,setting,value
"CCCCCCCCCCCCCCCC(=O)OC[C@@H](O)COP(=O)([O-])OCC[N+](C)(C)C [LPC-[^3H]palmitate, 1-palmitoyl 2-lysophosphocholine]",comparison of Mfsd2a-mediated uptake (capacity to transport),[1],"highest capacity to transport LPC-DHA, followed by LPC-oleate, and LPC-palmitate"
CCCCCCCCCCCCCCCCCC(=O)OC[C@@H](O)COP(=O)([O-])OCC[N+](C)(C)C [LPC-18:0],effect of cold LPC on transport of NBD-LPC,[2]; 10-fold molar excess of competitor,suppressed
CCCCCCCCCCOP(=O)([O-])OCC[N+](C)(C)C [Fos-10],competition of foscholines with LPC-[3H]palmitate,"[3]; 250 μM competitor, 15 mins",did not compete
"C[N+](C)(C)CCOP(=O)([O-])OC[C@H](O)CO [glycerophosphatidylcholine, alpha-glycerylphosphocholine]",competition for transport/uptake of LPC-[3H]palmitate,[3],not a competitor
lysophosphatidic acid [LPA],competition for transport/uptake of LPC-[3H]palmitate,[3],non-competitive
"CCC=CCC=CCC=CCC=CCC=CCC=CCCC(=O)OC[C@@H](O)COP(=O)([O-])OCC[N+](C)(C)C [LPC-[^14C]DHA, 1-docosahexaenoyl 2-lysophosphocholine]",conversion of transported LPCs into PCs,"[2]; HEK293 cells expressing Mfsd2a, radiolabeled LPC, TLC",rapid conversion of transported LPCs into PCs
same,reduction in brain uptake in Mfsd2a KO mice compared with wild-type,"[4]; i.v. injection, 2 hrs post-injection",more than 90%
same,uptake in peripheral tissues of KO mice compared with wild-type,"[4]; i.v. injection, liver and heart, 2 hrs",not decreased
same,"brain uptake, unesterified DHA compared with LPC-DHA","[4]; wild-type brain, same amount injected i.v., 2 hrs",far greater
same,comparison of Mfsd2a-mediated uptake (capacity to transport),[1],highest capacity
same,uptake of radiolabeled LPC by cells expressing Mfsd2a relative to control cells,"[1]; HEK293 cells, wild-type Mfsd2a vs mock, LPC/BSA, 30 mins",enhanced concentration-dependent uptake
C[N+](C)(C)CCOP(=O)([O-])OC[C@H](O)COC(=O)CCCCCCCCCCCNc1ccc([N+](=O)[O-])c2nonc12 [NBD-LPC],bio-incorporation of fluorescent LPC into phospholipids (PC),"[2]; HEK293 cells, 50 μM, TLC",bio-incorporated into membrane phospholipids
same,brain uptake (fluorescence of brain sections) in KO compared with wild-type,[4]; 300 μg fluorescent LPC/BSA complex i.v.,significantly reduced
same,uptake/transport of fluorescent lysolipid by cells expressing wild-type Mfsd2a,"[1]; HEK293 cells, vs mock, D92A, D96A",transported by Mfsd2a; also recorded: significantly enhanced uptake activity
CCCCCCCCCCCCC/C=C/[C@@H](O)[C@@H](N)COP(=O)([O-])OCC[N+](C)(C)C [Lysosphingomyelin],competition for transport/uptake of LPC-[3H]palmitate,[3],competed
same,competition for transport/uptake of LPC-[3H]palmitate,[3]; listed as lysosphingomyelin,strong competition
